Values of other authors as cited in patent US6642219B1, “Progestogen-antiprogestogen regimens” (Akzo Nobel N.V., priority 1997, dated 2003).

Key:
progesterone receptor = target: T1, progesterone receptor (Homo sapiens, UniProt P06401)
T1 sequence (P06401 1-933): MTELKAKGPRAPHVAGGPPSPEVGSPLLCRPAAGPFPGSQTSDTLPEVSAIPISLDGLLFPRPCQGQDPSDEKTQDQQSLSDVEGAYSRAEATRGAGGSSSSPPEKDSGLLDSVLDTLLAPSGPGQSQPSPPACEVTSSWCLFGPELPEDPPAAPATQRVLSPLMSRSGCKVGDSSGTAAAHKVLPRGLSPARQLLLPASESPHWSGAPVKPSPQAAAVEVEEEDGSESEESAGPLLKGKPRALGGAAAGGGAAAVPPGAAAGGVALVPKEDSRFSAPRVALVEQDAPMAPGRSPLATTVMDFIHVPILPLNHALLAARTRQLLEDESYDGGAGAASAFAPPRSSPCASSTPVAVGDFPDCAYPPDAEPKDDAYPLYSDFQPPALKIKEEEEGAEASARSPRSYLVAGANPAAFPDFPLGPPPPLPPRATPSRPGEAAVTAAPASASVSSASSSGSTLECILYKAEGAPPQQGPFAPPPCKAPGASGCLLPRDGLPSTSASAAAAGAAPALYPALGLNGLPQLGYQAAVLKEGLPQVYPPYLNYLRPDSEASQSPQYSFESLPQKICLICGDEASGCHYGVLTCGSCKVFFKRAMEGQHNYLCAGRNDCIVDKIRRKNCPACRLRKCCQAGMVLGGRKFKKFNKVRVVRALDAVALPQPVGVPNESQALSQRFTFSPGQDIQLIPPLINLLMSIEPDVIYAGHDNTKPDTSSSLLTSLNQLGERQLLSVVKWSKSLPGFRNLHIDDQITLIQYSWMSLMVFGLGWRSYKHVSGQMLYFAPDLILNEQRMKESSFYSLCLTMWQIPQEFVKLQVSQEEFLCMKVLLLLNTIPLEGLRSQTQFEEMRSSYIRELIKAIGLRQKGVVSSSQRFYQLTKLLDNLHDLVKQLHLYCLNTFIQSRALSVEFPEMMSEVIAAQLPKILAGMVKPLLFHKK

[1] = in vivo
[2] = based on practically applied doses

## C#C[C@]1(O)CC[C@H]2[C@@H]3CCC4=CC(=O)CC[C@@H]4[C@H]3C(=C)C[C@@]21CC [3-keto-desogestrel]
Progestogenic activity; [2]
  progestogenic activity, compared among each other: relatively equipotent

## C#C[C@]1(O)C=C[C@H]2[C@@H]3CCC4=CC(=O)CC[C@@H]4[C@H]3CC[C@@]21CC [Gestodene]
Progestogenic activity; [2]
  progestogenic potency relative to levonorgestrel, desogestrel and 3-keto-desogestrel: approximately 1.5 times

## C#CC1(O)CC[C@H]2[C@@H]3CCC4=CC(=O)CC[C@@H]4[C@H]3CC[C@@]21CC (stereo partly drawn) [Norgestrel]
Progestogenic activity
  progestogenic potency relative to levonorgestrel: about one-half

## C[C@@H]1C[C@@H]2C(=C3CCC(=O)C=C31)[C@@H](c1ccc(N(C)C)cc1)C[C@@]1(C)[C@H]2CC[C@@]12CCCO2 [Org 31710, (6α,11β,17β)-11-(4-dimethylaminophenyl)-6-methyl-4′,5′-dihydrospiro-[estra-4,9-diene-17,2′-(3′H)-furan]-3-one]
Progesterone receptor
  anti-progestogen potency compared with RU 486: somewhat more potent
[1]
  half-life: 50 h

## CC(=O)c1ccc(C2CC3(C)C(CCC34OCC=C4C)C3CCC4=CC(=O)CCC4=C23)cc1 (stereo not drawn) [Org 33628, (11β,17α)-11-(4-acetylphenyl)-17,23-epoxy-19,24-dinorchola-4,9,20-trien-3-one]
Progesterone receptor
  anti-progestogen potency compared with RU 486: somewhat more potent
[1]
  half-life: approximately 15 hours

## CC#C[C@]1(O)CC[C@H]2[C@@H]3CCC4=CC(=O)CCC4=C3[C@@H](c3ccc(N(C)C)cc3)C[C@@]21C [RU 486, (11β,17β)-11-[4-(demethylamino)-phenyl]-17-hydroxy-17-(1-propynyl)esta-4,9diene-3-one]
[1]
  half-life: ~20 h

## C#C[C@]1(O)CC[C@H]2[C@@H]3CCC4=CCCC[C@@H]4[C@H]3C(=C)C[C@@]21CC [desogestrel, 13-ethyl-11-methylene-18,19-di-nor-17α-pregn-4en-20-yn-17-ol]
Progestogenic activity; [2]
  progestogenic activity, compared among each other: relatively equipotent
